Where a name gives a salt, the structure may show the parent alone. Read-outs that look alike come from different tables or passages of the source.
What was measured:
[1] = target: T1, Human DYRK1A (Homo sapiens, UniProt Q13627); test: DYRK1A Kinase TR-FRET (IMAP-Tb) Assay; type: biochemical; settings: TR-FRET (IMAP-Tb); ATP 70 μM; 37° C. for 60 minutes; averages of multiple runs; read-out: Enzyme IC50 (μM) DYRK1A
T1 construct: purchased Invitrogen PV3997
Text: DYRK1A Kinase TR-FRET (IMAP-Tb) Assay
The kinase TR-FRET (IMAP-Tb) assay uses a fluorescence labeled substrate peptide in the kinase reaction. Upon phosphorylation by the kinase, phosphopeptide is produced, which will be detected by the binding solution provided in IMAP TR-FRET binding kit. After the completion of the kinase reaction, the reaction will be stopped by adding the binding solution containing terbium tracer. This tracer is immobilized on the surface of the IMAP beads, which also contain metal ions on the beads that bind to the phospho-groups of the products. Thus the phosphorylated product of the reaction can enter into close proximity to the tracer, producing resonance energy transfer. Due to the long lifetime of terbium (Tb) fluorescence the detection can be run in time resolved mode, which virtually eliminates fluorescence interference from assay components or compounds.
The TR-FRET signal measurement from this assay, given as an IC50 measurement, is a measure of a test compound's ability to interfere with the phosphorylation of the peptide substrate, that is it inhibits the phosphorylation of the substrate peptide by DYRK1A, and is thus a measure of the test compound's ability to inhibit the activity of DYRK1A.
Materials and Reagents • 1. Human DYRK1A: from Invitrogen. Part #PV3997 • 2. Substrate Peptide: […] • 3. IMAP TR-FRET IPP Explorer Kit: from Molecular Devices. Part #R8157 • 4. Kinase Assay Buffer (KAB): 10 mM HEPES pH 7.0, 50 mM NaCl, 5 mM MgCl2, 1 mM DTT, 1 mM NaVO4, 200 ug/mL BSA (0.02%) • 5. Assay Plate: Remp polypropylene clear 384-well microplate. […] Detection Plate: Costa black 384-well microplate.
Assay Procedure: this Assay was Performed as Follows: • 1. Transfer 1.5 μL of 20× compound solution to each well of an assay plate. • 2. Add to each well 22.5 μL of KAB Buffer. • 3. Add to each well 3 μL of the solution of DYRK1A and ATP. […] Add to each well 3 μL of the substrate peptide. The assay concentration is 1.0 μM • 5. Incubate the assay plates at 37° C. for 60 minutes. • 6. Add 18 μL of Detection Solution (1:800 diluted Progress bead stock, 1:400 diluted Tb stock, 80% Buffer A, and 20% Buffer B) into each well of detection plates. • 7. Transfer 6 μL of assay solution from the assay plate to the detection plate. • 8. Shake detection plates for 30 minutes. • 9. Read plates in Envision with wavelength set at excitation 340 nm for Tb, emission 490 nm, and […] 520 nm. • 10.

[2] = target: T2, Human DYRK1B (Homo sapiens, UniProt Q9Y463); test: DYRK1B Kinase TR-FRET (IMAP-Tb) Assay; type: biochemical
T2 construct: purchased Invitrogen PR8350B (former PV4649)
T2 sequence (Q9Y463 whole entry): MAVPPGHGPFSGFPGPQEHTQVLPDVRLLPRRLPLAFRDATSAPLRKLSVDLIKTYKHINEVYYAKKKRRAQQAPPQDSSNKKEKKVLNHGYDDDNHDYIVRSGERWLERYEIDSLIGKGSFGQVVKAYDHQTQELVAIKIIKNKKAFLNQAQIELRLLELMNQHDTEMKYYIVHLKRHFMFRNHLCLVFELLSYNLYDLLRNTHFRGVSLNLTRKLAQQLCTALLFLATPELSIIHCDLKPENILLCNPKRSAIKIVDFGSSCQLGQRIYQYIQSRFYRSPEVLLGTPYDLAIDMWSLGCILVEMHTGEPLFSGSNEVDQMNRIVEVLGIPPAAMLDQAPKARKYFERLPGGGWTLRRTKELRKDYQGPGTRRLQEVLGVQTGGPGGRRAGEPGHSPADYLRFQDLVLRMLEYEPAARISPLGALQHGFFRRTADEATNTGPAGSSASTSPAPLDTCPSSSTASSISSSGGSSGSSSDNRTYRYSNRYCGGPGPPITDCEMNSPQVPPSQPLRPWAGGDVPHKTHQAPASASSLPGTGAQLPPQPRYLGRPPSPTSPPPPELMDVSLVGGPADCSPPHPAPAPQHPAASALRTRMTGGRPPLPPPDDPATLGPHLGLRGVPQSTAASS
Text: DYRK1B Kinase TR-FRET (IMAP-Tb) Assay Assay Principle The kinase TR-FRET (IMAP-Tb) assay uses a fluorescence labeled substrate peptide in the kinase reaction. Upon phosphorylation by the kinase, phosphopeptide is produced, which will be detected by the binding solution provided in IMAP TR-FRET binding kit. After the completion of the kinase reaction, the reaction will be stopped by adding the binding solution containing terbium tracer. This tracer is immobilized on the surface of the IMAP beads, which also contain metal ions on the beads that bind to the phospho-groups of the products. Thus the phosphorylated product of the reaction can enter into close proximity to the tracer, producing resonance energy transfer. Due to the long lifetime of terbium (Tb) fluorescence the detection can be run in time resolved mode, which virtually eliminates fluorescence interference from assay components or compounds. The TR-FRET signal measurement from this assay, given as an IC50 measurement, is a measure of a test compound's ability to interfere with the phosphorylation of the peptide substrate, that is it inhibits the phosphorylation of the substrate peptide by DYRK1B, and is thus a measure of the test compound's ability to inhibit the activity of DYRK1B. IC50 is the amount of test compound that inhibits 50% of the activity of DYRK1B in this assay. In some cases where the IC50 was not determined, then the % inhibition at 10 μM test compound concentration may be reported. Materials and Reagents • 1. Human DYRK1B: from Invitrogen. Part #PR8350B (former PV4649) • 2. Substrate Peptide: in-house synthesized: RRRFRPASPLRGPPK • 3. IMAP TR-FRET IPP Explorer Kit: from Molecular Devices. Part #R8157 • 4. Kinase Assay Buffer (KAB): 10 mM HEPES pH 7.0, 50 mM NaCl, 5 mM MgCl2, 1 mM DTT, 1 mM NaVO4, 200 μg/mL BSA (0.02%) • 5. Assay Plate: Remp polypropylene clear 384-well microplate. Cat#23490-102 • 6. Detection Plate: Costa black 384-well microplate. Cat #3710 Assay Procedure: this Assay was Performed as Follows: • 1. Transfer 1.5 μL of 20× compound solution to each well of an assay plate. • 2. Add to each well 22.5 μL of KAB Buffer. • 3. Add to each well 3 μL of the solution of DYRK1B and ATP. […] Add to each well 3 μL of the substrate peptide. The assay concentration is 1.0 μM • 5. Incubate the assay plates at 37° C. for 60 minutes. • 6. Add 18 μL of Detection Solution (1:800 diluted Progress bead stock, 1:400 diluted Tb stock, 80% Buffer A, and 20% Buffer B) into each well of detection plates. • 7. Transfer 6 μL of assay solution from the assay plate to the detection plate. • 8. Shake detection plates for 30 minutes. • 9. Read plates in Envision with wavelength set at excitation 340 nm for Tb, emission 490 nm, and […] 520 nm. • 10. Calculation: TR-FRET Signal=(Reading at […]/Reading at 490 nM)×2000000

[3] = system: SW620 human colon cancer cells; test: SW620 Cell Viability Assay; type: cell-based; settings: SW-620, 96 h, CellTiter-Glo Luminescent Cell Viability Assay, 4 days incubation, read-out: Cellular EC50 (μM) SW620
Method: SW620 Cell Viability Assay
1. Cell Plate Preparation: SW620 human colon cancer cells (known to express DYRK1B), obtained from ATCC, were seeded into 96-well plates at 3×10^3 cells/well in 50 μL of media. • Harvested the required number of cells (counts & viability determined by Guava Viacount). • Centrifuge cells to pellet and removed supernant. • Resuspended in growth media (50 μL/well) & pipetted thoroughly to break up clumps. • Setup for ˜100 wells/plate, therefore, VT=5 mL/plate @ […].
1A. Some cells (S—) were allowed to attach for 24 hrs, serum starved for 48 hrs, and then followed with test compound treatments.
Test compound solution were prepared in regular corresponding media supplemented with serum.
2. Test compound Preparation: Drugs were solubilized in either DMSO or media and prepared at various stock concentrations. • All compounds were incubated at 37° C. for 30 minutes and vortexed. • (5 mM stocks of test compound were prepared for non-soluble test compounds)
3. Test compound Plate Preparation: • The 10 mM test compound stock was diluted to a concentration of 100× the final Cmax concentration. • Then the test compound stock is diluted 50-fold in media and/or second test compound for a final Cmax concentration in the test compound plate. • The Cmax in the test compound plate (2% DMSO) is 2-fold higher than the final Cmax in the cell plate (60 μl, titrations were 1:3).
4. Viability Assay: This assay was performed as follows: • Transfer 50 μL of test compound solution per well from the test compound plate onto the cell plate prepared in Step #1. • Mix the plate with treated cells by pipetting up and down three times with 200 μL multi-channel pipette. • Incubate the cells in 5% CO2 incubator @ 37° C. for 4 days. • Run the CellTiter-Glo™ Luminescent Cell Viability Assay.
The results of this assay, given as EC50 values, indicate the concentration of test compound that inhibits tumor cell proliferation by 50%.

[4] = TR-FRET (IMAP-Tb), ATP 70 μM, 37° C. for 60 minutes, averages of multiple runs, read-out: Enzyme IC50 (μM) DYRK1B

| Compound | IC50 [1] | IC50 [2, 4] | EC50 [3] | IC50 [2] | inhibition at 10 µM ([2]; at 10 μM test compound concentration, where the IC50 was not determined) |
| --- | --- | --- | --- | --- | --- |
| N[C@H]1CC[C@H](Nc2ncc3c(-c4ccnc(NCc5cccc(Cl)c5)n4)n[nH]c3n2)CC1 [Example 71, N-{3-[2-(3-Chloro-benzylamino)-pyrimidin-4-yl]-1H-pyrazolo[3,4-d]pyrimidin-6-yl}-cyclohexane-1,4-diamine; hydrochloride] | 0.0046 µM | 0.006 µM | 0.027 µM |  |  |
| c1cc(NCc2ccsc2)nc(-c2n[nH]c3nc(NCCN4CCOCC4)ncc23)c1 [Example 60, (2-Morpholin-4-yl-ethyl)-(3-{6-[(thiophen-3-ylmethyl)-amino]-pyridin-2-yl}-1H-pyrazolo[3,4-d]pyrimidin-6-yl)-amine] | 0.785 µM | 0.234 µM | > 10 µM |  |  |
| Clc1cccc(CNc2nccc(-c3n[nH]c4nc(NCCN5CCOCC5)ncc34)n2)c1 [Example 62, {3-[2-(3-Chloro-benzylamino)-pyrimidin-4-yl]-1H-pyrazolo[3,4-d]pyrimidin-6-yl}-(2-morpholin-4-yl-ethyl)-amine; hydrochloride] | 0.0384 µM | 0.0586 µM | > 10 µM |  |  |
| Clc1cccc(CNc2cccc(-c3n[nH]c4nc(NCCN5CCOCC5)ncc34)n2)c1 [Example 47, {3-[6-(3-Chloro-benzylamino)-pyridin-2-yl]-1H-pyrazolo[3,4-d]pyrimidin-6-yl}-(2-morpholin-4-yl-ethyl)-amine] | 1.39 µM | 1.06 µM | > 10 µM |  |  |
| N[C@H]1CC[C@H](Nc2ncc3c(-c4cccc(NCc5ccccc5Cl)c4)n[nH]c3n2)CC1 [Example 56, N-{3-[3-(2-Chloro-benzylamino)-phenyl]-1H-pyrazolo[3,4-d]pyrimidin-6-yl}-cyclohexane-1,4-diamine] | 0.346 µM | 0.194 µM | 4.1 µM |  |  |
| N[C@H]1CC[C@H](Nc2ncc3c(-c4cccc(NCc5ccsc5)c4)n[nH]c3n2)CC1 [Example 58, N-(3-{3-[(Thiophen-3-ylmethyl)-amino]-phenyl}-1H-pyrazolo[3,4-d]pyrimidin-6-yl)-cyclohexane-1,4-diamine] | 2.61 µM | 0.762 µM | 6.41 µM |  |  |
| c1cc(-c2n[nH]c3nc(NCCN4CCOCC4)ncc23)nc(NCc2ccsc2)n1 [Example 77, (2-Morpholin-4-yl-ethyl)-(3-{2-[(thiophen-3-ylmethyl)-amino]-pyrimidin-4-yl}-1H-pyrazolo[3,4-d]pyrimidin-6-yl)-amine; hydrochloride] | 0.0129 µM | 0.04 µM | 5.99 µM |  |  |
| N[C@H]1CC[C@H](Nc2ncc3c(-c4ccnc(NCc5ccccc5)n4)n[nH]c3n2)CC1 [Example 70, N-[3-(2-Benzylamino-pyrimidin-4-yl)-1H-pyrazolo[3,4-d]pyrimidin-6-yl]-cyclohexane-1,4-diamine; hydrochloride] | 0.0062 µM | 0.0125 µM | > 10 µM |  |  |
| NCC(Nc1nccc(-c2n[nH]c3nc(N[C@H]4CC[C@H](N)CC4)ncc23)n1)c1cccc(Cl)c1 (some centres unmarked) [Example 78, N-(3-{2-[2-Amino-1-(3-chloro-phenyl)-ethylamino]-pyrimidin-4-yl}-1H-pyrazolo[3,4-d]pyrimidin-6-yl)-cyclohexane-1,4-diamine; hydrochloride] | 0.0046 µM | < 0.0046 µM | 0.7 µM |  |  |
| NCC(Nc1nccc(-c2n[nH]c3nc(NCCN4CCOCC4)ncc23)n1)c1ccccc1 (centres unmarked) [Example 83, N1-{4-[6-(2-Morpholin-4-yl-ethylamino)-1H-pyrazolo[3,4-d]pyrimidin-3-yl]-pyrimidin-2-yl}-1-phenyl-ethane-1,2-diamine; hydrochloride] |  |  | 0.56 µM | 0.0183 µM |  |
| Clc1ccc(CNc2cccc(-c3n[nH]c4nc(NCCN5CCOCC5)ncc34)c2)cc1 [Example 50, {3-[3-(4-Chloro-benzylamino)-phenyl]-1H-pyrazolo[3,4-d]pyrimidin-6-yl}-(2-morpholin-4-yl-ethyl)-amine] | 4.91 µM | > 10 µM |  |  |  |
| c1ccc(CNc2cccc(-c3n[nH]c4nc(NCCN5CCCCC5)ncc34)n2)cc1 [Example 44, [3-(6-Benzylamino-pyridin-2-yl)-1H-pyrazolo[3,4-d]pyrimidin-6-yl]-(2-piperidin-1-yl-ethyl)-amine] | 3.96 µM |  |  |  | 32% |
| NCC(Nc1nccc(-c2n[nH]c3nc(N[C@H]4CC[C@H](N)CC4)ncc23)n1)c1ccccc1 (some centres unmarked) [Example 67, N-{3-[2-(2-Amino-1-phenyl-ethylamino)-pyrimidin-4-yl]-1H-pyrazolo[3,4-d]pyrimidin-6-yl}-cyclohexane-1,4-diamine; hydrochloride] | 0.0046 µM | 0.00517 µM |  |  |  |
